Test results: ChEMBL document CHEMBL3352799, “Arylazolyl(azinyl)thioacetanilides. Part 16: Structure-based bioisosterism design, synthesis and biological evaluation of novel pyrimidinylthioacetanilides as potent HIV-1 inhibitors” (Bioorg Med Chem, 2014)
Active and inactive are the calls of the source. The rule behind the calls is not given here.

Key:
[1] = system: Human immunodeficiency virus 1; assay: Antiviral activity against HIV1 RES056 expressing reverse transcriptase K103N/Y181C double mutant infected in human MT4 cells assessed as reduction in virus-induced cytopathogenicity by MTT assay; format: functional, organism-based; details: Human immunodeficiency virus 1, RES056, MT4
[2] = system: Human immunodeficiency virus 1; assay: Antiviral activity against HIV1 3B infected in human MT4 cells assessed as reduction in virus-induced cytopathogenicity by MTT assay; format: functional, organism-based; details: Human immunodeficiency virus 1, 3B
[3] = system: Human immunodeficiency virus 2; assay: Antiviral activity against HIV2 ROD infected in human MT4 cells assessed as reduction in virus-induced cytopathogenicity by MTT assay; format: functional, organism-based; details: ISOLATE ROD
[4] = molecular target: Human immunodeficiency virus type 1 reverse transcriptase (Human immunodeficiency virus 1, UniProt Q72547); assay: Inhibition of HIV1 reverse transcriptase assessed as inhibition of biotin-dUTP incorporation using hybrid poly (A).oligo (dT)15 template primer incubated for 1 hr at 37 degC by ELISA method
[5] = Selectivity index, ratio of CC50 for human MT4 cells to EC50 for HIV1 3B infected in human MT4 cells; format: toxicity, cell-based; details: read-out: Ratio CC50/EC50
[6] = Cytotoxicity against human MT4 cells by MTT assay; format: cell-based
[7] = Selectivity index, ratio of CC50 for human MT4 cells to EC50 for HIV1 RES056 expressing reverse transcriptase K103N/Y181C double mutant infected in human MT4 cells; format: toxicity, cell-based; details: read-out: Ratio CC50/EC50

SMILES | EC50 [1] [µM] | EC50 [2] [µM] | inhibition [3] | IC50 [4] [µM] | selectivity ratio [5] | CC50 [6] [µM] | selectivity ratio [7]
CCOC(=O)CNC(=O)c1ccc(NC(=O)CSc2ncncc2-c2cccc3ccccc23)c(Cl)c1 | 30.6 | 0.15 | inactive | 1.31 | 684 | 105 | 3
NS(=O)(=O)c1ccc(NC(=O)CSc2ncncc2-c2cccc3ccccc23)c(Br)c1 | 3.9 | 0.18 | inactive | – | 132 | 24.1 | 6
O=C(CSc1ncncc1-c1cccc2ccccc12)Nc1ccccc1[N+](=O)[O-] | > 22.5 | 0.91 | inactive | – | 25 | 22.5 | < 1
Brc1ccccc1Cn1cc(CSc2ncncc2-c2cccc3ccccc23)nn1 | > 39.4 | > 39.4 | inactive | – | < 1 | 39.4 | < 1
O=C(O)c1ccc(-n2cc(CSc3ncncc3-c3cccc4ccccc34)nn2)cc1 | > 95.9 | > 95.9 | inactive | – | < 1 | 95.9 | < 1
Cc1ccnc2c1NC(=O)c1cccnc1N2C1CC1 [NEVIRAPINE] | > 14.4 | – | – | – | – | > 14.4 | –
O=C(CSc1ncncc1-c1cccc2ccccc12)Nc1ccc(C(=O)O)cc1Cl | > 108 | 8.13 | inactive | – | 13 | 108 | < 1
O=C(CSc1nccnc1-c1ccccc1Cl)Nc1ccccc1[N+](=O)[O-] | – | – | – | – | 23 | – | –
CC(C)Nc1cccnc1N1CCN(C(=O)c2cc3cc(NS(C)(=O)=O)ccc3[nH]2)CC1 [DELAVIRDINE] | > 43.8 | 0.49 | – | – | > 89 | > 43.8 | 1
O=C(CSc1nnccc1-c1cccc2ccccc12)Nc1ccccc1[N+](=O)[O-] | – | – | – | – | 2150 | – | –
COC(=O)c1ccc(NC(=O)CSc2ncncc2-c2cccc3ccccc23)c(Cl)c1 | > 154 | 2.84 | inactive | – | 54 | 154 | < 1
O=C(CSc1ncncc1-c1cccc2ccccc12)Nc1ccc(C(=O)NO)cc1Cl | > 4.8 | 0.63 | inactive | – | 8 | 4.8 | < 1
COC(=O)c1ccc(NC(=O)CSc2ncncc2-c2cccc3ccccc23)c([N+](=O)[O-])c1 | > 196 | 3.58 | inactive | – | ≥ 55 | ≥ 196 | 1
CCOC(=O)c1ccc(NC(=O)CSc2ncncc2-c2cccc3ccccc23)c(Cl)c1 | > 195 | 4.55 | inactive | – | 43 | 195 | < 1
O=C(CSc1ncncc1-c1cccc2ccccc12)Nc1ccc(C(=O)O)nc1Cl | > 127 | 24.2 | inactive | – | 5 | 127 | < 1
COc1ccc(Cn2cc(CSc3ncncc3-c3cccc4ccccc34)nn2)cc1 | > 31.2 | > 31.1 | inactive | – | < 1 | 31.2 | < 1
CCOC(=O)C(C)NC(=O)c1ccc(NC(=O)CSc2ncncc2-c2cccc3ccccc23)c(Cl)c1 (configuration not stated) | > 35.6 | 2.76 | inactive | – | 13 | 35.6 | < 1
CCOC(=O)c1ccc(NC(=O)CSc2ncncc2-c2cccc3ccccc23)c(Br)c1 | > 211 | 4.46 | inactive | – | 47 | 211 | < 1
COC(=O)c1ccc(NC(=O)CSc2ncncc2-c2cccc3ccccc23)c(Br)c1 | > 168 | 2.42 | inactive | – | 69 | 168 | < 1
CONC(=O)c1ccc(NC(=O)CSc2ncncc2-c2cccc3ccccc23)c(Cl)c1 | > 131 | 0.75 | inactive | – | 175 | 131 | < 1
O=C1Nc2ccc(Cl)cc2[C@@](C#CC2CC2)(C(F)(F)F)O1 [EFAVIRENZ] | 0.23 | 0.0053 | – | – | > 1180 | > 6.3 | > 27
NS(=O)(=O)c1ccc(NC(=O)CSc2nncnc2-c2cccc3ccccc23)c(Br)c1 | – | – | – | – | 1290 | – | –
